Source: ChEMBL document CHEMBL1141601, “Exploring the molecular basis of action of the passive antiglucocorticoid 21-hydroxy-6,19-epoxyprogesterone” (J Med Chem, 2008)
The source made the active and inactive calls. The rule behind the calls is not given here.

Legend:
[1] = target: T1, Glucocorticoid receptor (Homo sapiens) (UniProt P04150); experiment: Activity at GR expressed in mouse L929 cells at 10 uM by transactivation assay relative to control; assay type: cell-based
T1 sequence (whole entry): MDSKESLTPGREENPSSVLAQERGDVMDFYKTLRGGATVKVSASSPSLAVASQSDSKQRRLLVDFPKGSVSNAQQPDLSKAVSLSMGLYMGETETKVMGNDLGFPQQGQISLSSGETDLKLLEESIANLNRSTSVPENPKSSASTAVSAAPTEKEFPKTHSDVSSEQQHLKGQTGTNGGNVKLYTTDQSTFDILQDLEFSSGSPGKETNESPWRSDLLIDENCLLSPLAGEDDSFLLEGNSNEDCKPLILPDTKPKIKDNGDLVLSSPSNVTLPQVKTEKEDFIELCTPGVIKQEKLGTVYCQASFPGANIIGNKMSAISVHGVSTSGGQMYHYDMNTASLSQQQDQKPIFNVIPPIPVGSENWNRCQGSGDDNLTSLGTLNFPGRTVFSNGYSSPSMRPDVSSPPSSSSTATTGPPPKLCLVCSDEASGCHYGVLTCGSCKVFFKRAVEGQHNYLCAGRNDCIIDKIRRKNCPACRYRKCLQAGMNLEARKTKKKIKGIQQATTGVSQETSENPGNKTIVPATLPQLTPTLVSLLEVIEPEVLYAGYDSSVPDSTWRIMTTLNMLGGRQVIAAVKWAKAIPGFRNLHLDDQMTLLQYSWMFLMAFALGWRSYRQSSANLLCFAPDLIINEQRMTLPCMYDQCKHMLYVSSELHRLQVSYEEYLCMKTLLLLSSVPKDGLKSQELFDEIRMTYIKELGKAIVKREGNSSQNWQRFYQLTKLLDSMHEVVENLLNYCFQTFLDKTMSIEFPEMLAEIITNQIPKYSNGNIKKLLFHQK

Liver = experiment: Effect on increase in glycogen deposition in rat liver; assay type: functional, tissue-based
[2] = target: T2, Tyrosine aminotransferase (Homo sapiens) (UniProt P17735); experiment: Induction of tyrosine aminotransferase
T2 sequence (whole entry): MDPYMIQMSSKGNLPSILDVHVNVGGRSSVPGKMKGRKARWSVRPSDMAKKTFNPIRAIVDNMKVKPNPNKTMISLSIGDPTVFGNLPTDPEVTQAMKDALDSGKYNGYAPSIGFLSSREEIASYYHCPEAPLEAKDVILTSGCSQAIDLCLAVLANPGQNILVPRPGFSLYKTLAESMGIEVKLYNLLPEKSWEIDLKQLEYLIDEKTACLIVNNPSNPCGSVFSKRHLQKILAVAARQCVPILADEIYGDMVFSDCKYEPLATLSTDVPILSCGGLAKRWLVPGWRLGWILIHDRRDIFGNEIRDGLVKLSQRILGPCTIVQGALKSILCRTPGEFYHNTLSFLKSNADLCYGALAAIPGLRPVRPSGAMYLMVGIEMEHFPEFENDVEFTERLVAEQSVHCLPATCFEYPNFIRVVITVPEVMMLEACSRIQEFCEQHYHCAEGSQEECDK

- Activity [1]: inactive
- Activity [2]: inactive
SMILES: C[C@]12CC[C@H]3[C@@H](CC4OC[C@@]35CCC(=O)C=C45)[C@@H]1CC[C@@H]2C(=O)CO
- Activity (Liver): inactive
